This is an account of results in ChEMBL document CHEMBL1131346, “A free energy calculation can be used to predict K(+)-binding constants for new macrotetrolide antibiotics” (Bioorg Med Chem Lett, 1998).

The assay is described as follows: Compound was evaluated for K+ ion binding affinity to macrocycle of macrotetrolides.

Regarding `CC[C@H]1C[C@@H]2CC[C@@H](O2)[C@@H](C)C(=O)O[C@H](C)C[C@H]2CC[C@H](O2)[C@H](C)C(=O)O[C@@H](C)C[C@@H]2CC[C@@H](O2)[C@@H](C)C(=O)O[C@H](C)C[C@H]2CC[C@H](O2)[C@H](C)C(=O)O1`, the Log K is 4.4.

Regarding `C[C@@H]1C[C@H]2CC[C@H](O2)[C@H](C)C(=O)O[C@@H](C)C[C@@H]2CC[C@@H](O2)[C@@H](C)C(=O)O[C@H](C)C[C@H]2CC[C@@H](O2)[C@H](C)C(=O)O[C@@H](C)C[C@@H]2CC[C@@H](O2)[C@@H](C)C(=O)O1`, the Log K came out at 3.88.

The compound `CC[C@H]1C[C@@H]2CC[C@@H](O2)[C@@H](C)C(=O)O[C@H](C)C[C@H]2CC[C@H](O2)[C@H](C)C(=O)O[C@@H](CC)C[C@@H]2CC[C@@H](O2)[C@@H](C)C(=O)O[C@H](C)C[C@H]2CC[C@H](O2)[C@H](C)C(=O)O1` gave a Log K of 4.73.
